Measured values: publication PMC9411599
Like-named read-outs stand apart in the source and are kept apart here.

Columns and labels:
[1] = photoredox thiol-yne dihydrothiolation of acetylene by dithiol ([1+1] macrocyclisation, forms S-CH2CH2-S bridge); [Ir(d(tBu)(CF3)ppy)2(dtbbpy)]Cl 1 mol%, DIPEA 1.5 equiv, acetylene balloon, blue LEDs 455 nm; settings: the molecule shown is the open-chain precursor, DMF/H2O 50:1, 50.0 mM, 25.0 °C
[2] = the molecule shown is the open-chain precursor

O=C(CCS)OCCCCCCOc1ccc2ccccc2c1-c1c(OCCCCCCOC(=O)CCS)ccc2ccccc12 [48 ((R)-BINOL, axial stereo not in SMILES)]
ring closure, isolated yield ([1]; 30-membered ring, 12.0 h): 26%

O=C(CCS)OCCOCCOCCOC(=O)CCS [24]
ring closure, isolated yield ([1]; 20-membered ring, 12.0 h): 28%

O=C(CCS)OCCOCCOC(=O)CCS [23]
ring closure, isolated yield ([1]; 17-membered ring, 12.0 h): 29%

SCCCCCS [56 substrate (only [2+2])]
ring closure, isolated yield ([1]; 9-membered ring, 12.0 h): 0%

O=C(CCS)OCCN(CCOC(=O)CCS)c1ccccc1 [27]
ring closure, isolated yield ([1]; 17-membered ring, 12.0 h): 38%

OC(CS)C(O)CS (stereo not shown) [53 substrate (only [2+2])]
ring closure, isolated yield ([1]; 8-membered ring, 12.0 h): 0%

CC(C)(COC(=O)CCS)COC(=O)CCS [9]
ring closure, isolated yield ([1]; 15-membered ring, 12.0 h): 32%

O=C(CCS)OCCOCCOCCOCCOCCOCCOCCOCCOC(=O)CCS [26]
ring closure, isolated yield ([1]; 35-membered ring, 12.0 h): 18%

CN(CC(=O)OCCCCCCS)CC(=O)OCCCCCCS [28]
ring closure, isolated yield ([1]; 23-membered ring, 12.0 h): 24%

O=C(OCCCCCCS)c1ccccc1S [33]
ring closure, isolated yield ([1]; 14-membered ring, 12.0 h): 25%

O=C(CCS)OCCOCCOCCOCCOC(=O)CCS [25]
ring closure, isolated yield ([1]; 23-membered ring, 12.0 h): 27%

O=C(CCS)OCCCOc1ccc2ccccc2c1-c1c(OCCCOC(=O)CCS)ccc2ccccc12 [45 ((R)-BINOL, axial stereo not in SMILES)]
ring closure, isolated yield ([1]; 24-membered ring, 12.0 h): 30%

SCCCS [54 substrate (only [2+2])]
ring closure, isolated yield ([1]; 7-membered ring, 12.0 h): 0%

SCCCCCCCCCCS [60 substrate (only [2+2])]
ring closure, isolated yield ([1]; 14-membered ring, 12.0 h): 0%

O=C(CCS)OCCCCCOC(=O)CCS [11]
ring closure, isolated yield ([1]; 17-membered ring, 12.0 h): 38%

SCCCCCCCCCS [59 substrate (only [2+2])]
ring closure, isolated yield ([1]; 13-membered ring, 12.0 h): 0%

O=C(CCS)OCCCOC(=O)CCS [6]
ring closure, isolated yield ([1]; 15-membered ring, 12.0 h): 30%

O=C(OCCCCCCS)C(F)(F)C(F)(F)C(=O)OCCCCCCS [20]
ring closure, isolated yield ([1]; 22-membered ring, 12.0 h): 33%

O=C(COCC(=O)OCCCCCCS)OCCCCCCS [22]
ring closure, isolated yield ([1]; 23-membered ring, 12.0 h): 23%

SCCOCCOCCS [62 (dimer 61)]
ring closure, isolated yield ([1]; 12-membered ring, 12.0 h): 42%

SCCCCS [55 substrate (only [2+2])]
ring closure, isolated yield ([1]; 8-membered ring, 12.0 h): 0%

O=C(OCCCCCCS)C12CC3CC(C1)CC(C(=O)OCCCCCCS)(C3)C2 [31]
ring closure, isolated yield ([1]; 23-membered ring, 12.0 h): 32%

O=C(CCS)OCCCCCCCCCCOC(=O)CCS [17]
ring closure, isolated yield ([1]; 22-membered ring, 12.0 h): 20%

O=C(CCS)O[C@H]1CCCC[C@@H]1OC(=O)CCS [49 (1S,2S per text; SI product procedure names 1R,2R)]
ring closure, isolated yield ([1]; 14-membered ring, 12.0 h): 38%

O=C(CCS)OCCOC(=O)CCS [5]
ring closure, isolated yield ([1]; 14-membered ring, 12.0 h): 42%

O=C(OCCCCCCS)C12CCC(C(=O)OCCCCCCS)(CC1)CC2 [30]
ring closure, isolated yield ([1]; 24-membered ring, 12.0 h): 28%

O=C(CCS)OCc1ccc(COC(=O)CCS)o1 [41]
ring closure, isolated yield ([1]; 17-membered ring, 12.0 h): 15%

O=C(OCCCCCCS)[C@H]1CC[C@H](C(=O)OCCCCCCS)CC1 [29 (trans)]
ring closure, isolated yield ([1]; 24-membered ring, 12.0 h): 26%

O=C(CCCCCCC(=O)OCCS)OCCS [13]
ring closure, isolated yield ([1]; 18-membered ring, 12.0 h): 28%

CC(COC(=O)CCS)COC(=O)CCS [7]
ring closure, isolated yield ([1]; 15-membered ring, 12.0 h): 27%

O=C(OCCCCCCS)C(F)(F)C(F)(F)C(F)(F)C(F)(F)C(=O)OCCCCCCS [21]
ring closure, isolated yield ([1]; 24-membered ring, 12.0 h): 31%

O=C(CCS)OCCCCCCCCOC(=O)CCS [15]
ring closure, isolated yield ([1]; 20-membered ring, 12.0 h): 22%

O=C(CCS)OCCCCCCOc1cccc2c1C1(CC2)CCc2cccc(OCCCCCCOC(=O)CCS)c21 (single isomer, unassigned) [51 ((R)-spirobiindane, stereo not in SMILES)]
ring closure, isolated yield ([1]; 31-membered ring, 12.0 h): 21%

O=C(CCS)OCCCCCOc1ccc2ccccc2c1-c1c(OCCCCCOC(=O)CCS)ccc2ccccc12 [47 ((R)-BINOL, axial stereo not in SMILES)]
ring closure, isolated yield ([1]; 28-membered ring, 12.0 h): 29%

CC(CC(C)OC(=O)CCS)OC(=O)CCS (racemic) [8 (+/-)]
ring closure, isolated yield ([1]; 15-membered ring, 12.0 h): 33%

C[C@H](S)C(=O)NCC(=O)OCCCCCCS [50 (S per text; SI also names R)]
ring closure, isolated yield ([1]; 16-membered ring, 12.0 h): 19%

O=C(CCS)OCc1cccc(COC(=O)CCS)n1 [40]
ring closure, isolated yield ([1]; 17-membered ring, 12.0 h): 32%

O=C(CS)OCCCCOC(=O)CS [4]
ring closure, isolated yield ([1]; 14-membered ring, 12.0 h): 32%

O=C(CCS)OCCCOc1ccc2ccc(OCCCOC(=O)CCS)cc2c1 [39]
ring closure, isolated yield ([1]; 25-membered ring, 12.0 h): 31%

O=C(CCS)OCCCCOC(=O)CCS [10]
ring closure, isolated yield ([1]; 16-membered ring, 12.0 h): 36%

SCCCCCCCCOc1ccc2ccccc2c1-c1c(OCCCCCCCCS)ccc2ccccc12 [46 ((R)-BINOL, axial stereo not in SMILES)]
ring closure, isolated yield ([1]; 26-membered ring, 12.0 h): 28%

O=C(CCS)OCCCCCCOC(=O)CCS [12]
ring closure, isolated yield ([1]; 18-membered ring, 12.0 h): 23%

O=C(CCS)OCCCCCCCCCCCCCCOC(=O)CCS [19]
ring closure, isolated yield ([1]; 26-membered ring, 12.0 h): 21%

SCCCCCCS [57 substrate (only [2+2])]
ring closure, isolated yield ([1]; 10-membered ring, 12.0 h): 0%

O=C(OCCCCCCS)[c-]1cccc1.O=C(OCCCCCCS)[c-]1cccc1.[Fe+2] [42 (ferrocene)]
ring closure, isolated yield [2]: 8%

SCCCCCCOc1ccc2ccccc2c1-c1c(OCCCCCCS)ccc2ccccc12 [44 ((R)-BINOL, axial stereo not in SMILES)]
ring closure, isolated yield ([1]; 22-membered ring, 12.0 h): 35%

SCCOCCS [64 (dimer 63)]
ring closure, isolated yield ([1]; 9-membered ring, 12.0 h): 23%

O=C(CCS)OCCCCCCCCCOC(=O)CCS [16]
ring closure, isolated yield ([1]; 21-membered ring, 12.0 h): 24%

O=C(CCS)OCCOc1ccc(OCCOC(=O)CCS)cc1 [38]
ring closure, isolated yield ([1]; 22-membered ring, 12.0 h): 22%

O=C(CCS)OCCCCCCCCCCCCOC(=O)CCS [18]
ring closure, isolated yield ([1]; 24-membered ring, 12.0 h): 25%

O=C(CCS)OCc1ccc(COC(=O)CCS)cc1 [37]
ring closure, isolated yield ([1]; 18-membered ring, 12.0 h): 8%

O=C(CCS)OCCN1CCN(CCOC(=O)CCS)CC1 [32]
ring closure, isolated yield ([1]; 20-membered ring, 12.0 h): 21%

O=C(COc1ccccc1OCC(=O)OCCCCCCS)OCCCCCCS [35]
ring closure, isolated yield ([1]; 26-membered ring, 12.0 h): 24%

SCCCCCCCCS [58 substrate (only [2+2])]
ring closure, isolated yield ([1]; 12-membered ring, 12.0 h): 0%

O=C(OCCOc1ccc(OCCOC(=O)c2ccccc2S)cc1)c1ccccc1S
ring closure, isolated yield ([1]; 22-membered ring): 0%

O=C(CCS)OCc1ccccc1COC(=O)CCS [34]
ring closure, isolated yield ([1]; 16-membered ring, 12.0 h): 39%

O=C(CCS)OCCCCCCCOC(=O)CCS [14 (=3)]
ring closure, isolated yield ([1]; 19-membered ring, 12.0 h): 26%

SCCS [52 substrate (only [2+2])]
ring closure, isolated yield ([1]; 6-membered ring, 12.0 h): 0%

SCCCOc1ccc2ccccc2c1-c1c(OCCCS)ccc2ccccc12 [43 ((R)-BINOL, axial stereo not in SMILES)]
ring closure, isolated yield ([1]; 16-membered ring, 12.0 h): 40%

O=C(CCS)OCc1cccc(COC(=O)CCS)c1 [36]
ring closure, isolated yield ([1]; 17-membered ring, 12.0 h): 37%

SCCSCCCSCCS [66 (dimer 65)]
ring closure, isolated yield ([1]; 13-membered ring, 12.0 h): 17%
